Test results reported in BindingDB's records for doi:10.1016/j.bmcl.2005.03.008 (Abbott Laboratories, 2005).

The compounds below were run against T1, Dimer of Gag-Pol polyprotein [489-587] (Human immunodeficiency virus 1, UniProt P12497) (assay: Enzyme Inhibition Assay). Conditions: pH 4.5; 30 °C.
T1 construct: 489-587
Procedure: HIV-1 protease inhibition was measured by a fluorescence assay using recombinant HIV-1 protease. […] The percent inhibition of enzyme activity in the presence of inhibitor was determined by comparing inhibition rates with uninhibited control reactions. All IC50 values were determined with a range of inhibitor concentrations using the relation IC50 = (100/ percent inhibition - 1) x inhibitor concentration.

| SMILES | IC50 |
| --- | --- |
| Cc1nc(CN2CCN([C@H](C(=O)N[C@@H](Cc3ccccc3)[C@H](O)CN(CC(C)C)S(=O)(=O)c3cccc(CN=O)c3)C(C)C)C2=O)cs1 [(2S)-N-[(2S,3R)-3-hydroxy-4-({3-[(1E)-(hydroxyimino)methyl]benzene}(2-methylpropyl)sulfonamido)-1-phenylbutan-2-yl]-3-methyl-2-{3-[(2-methyl-1,3-thiazol-4-yl)methyl]-2-oxoimidazolidin-1-yl}butanamide] | 16 nM |
| Cc1nc(CN2CCN([C@H](C(=O)N[C@@H](Cc3ccccc3)[C@H](O)CN(CC(C)C)S(=O)(=O)c3ccc(CN=O)cc3)C(C)C)C2=O)cs1 [(2S)-N-[(2S,3R)-3-hydroxy-4-({4-[(1E)-(hydroxyimino)methyl]benzene}(2-methylpropyl)sulfonamido)-1-phenylbutan-2-yl]-3-methyl-2-{3-[(2-methyl-1,3-thiazol-4-yl)methyl]-2-oxoimidazolidin-1-yl}butanamide] | 5 nM |
| Cc1nc(CN2CCN([C@H](C(=O)N[C@@H](Cc3ccccc3)[C@H](O)CN(CC(C)C)S(=O)(=O)c3ccc(CO)cc3)C(C)C)C2=O)cs1 [(2S)-N-[(2S,3R)-3-hydroxy-4-{[4-(hydroxymethyl)benzene](2-methylpropyl)sulfonamido}-1-phenylbutan-2-yl]-3-methyl-2-{3-[(2-methyl-1,3-thiazol-4-yl)methyl]-2-oxoimidazolidin-1-yl}butanamide] | 16 nM |
| CO/N=C/c1ccc(S(=O)(=O)N(CC(C)C)C[C@@H](O)[C@H](Cc2ccccc2)NC(=O)[C@H](C(C)C)N2CCN(Cc3csc(C)n3)C2=O)cc1 [(2S)-N-[(2S,3R)-3-hydroxy-4-({4-[(1E)-(methoxyimino)methyl]benzene}(2-methylpropyl)sulfonamido)-1-phenylbutan-2-yl]-3-methyl-2-{3-[(2-methyl-1,3-thiazol-4-yl)methyl]-2-oxoimidazolidin-1-yl}butanamide] | 653 nM |
